US6861542B1, “Dimer amidopropyl dimethyl quaternary compounds” (SurfaTech Corporation, priority 2004, dated 2005)

How the values were obtained:
[1] = Anionic compatibility test (titration of 10% sodium lauryl sulfate with 10% solids quat solution); format: physicochemical; details: 10% solids solution added to 100 ml of 10% sodium lauryl sulfate; for number of ml of solution A at the first point haze or precipitate was noted (end point): test stopped at 100 ml (fully compatible)
Description: The compounds evaluated were diluted to 10% solids with DI water before evaluation.
A solution of 10% b weight sodium lauryl sulfate was prepared. The sodium lauryl sulfate was obtained from Colonial Chemical in South Pittsburgh Tennessee.
Anionic Compatibility Test
100 ml of solution B was added to a 400 ml beaker. Solution A was slowly added until either a precipitate or haziness was noted. The number of ml of solution was recorded at the first point the haze of precipitate was noted. That point was noted as the end point. The higher the volume used to the end point the better the compatibility. The test is stopped at 100 ml at which point the product is considered fully compatible.

hair = test: Half head conditioning study in commercial baby shampoo; format: in vivo; design: key: 1: no conditioning; 2: minimal conditioning; 3: measurable conditioning; 4: good conditioning; 5: excellent conditioning; details: 0.5% active by weight in commercial baby shampoo, 10 people, average rounded to nearest whole number
Description: The baby shampoo compounds were evaluated on 10 people with half head studies. The values reported were the average rounded to the nearest whole number. […] The scale used to evaluate was: [table]

Molecule | anionic compatibility rating [1] | number of ml of solution A at the first point haze or precipitate was noted (end point) [1] [mL] | Conditioning Value (hair)
CCCCCCCCCCCCCCCCCC[N+](C)(C)Cc1ccccc1.[Cl-] [Stearyl dimethyl denzalkonium chloride, reference compound] | Very Incompatible | 1.0 | 
CCCCCCCCCCCCCCCCCC(=O)NCCCN(C)C.Cl [Stearylamidopropyl dimethyl ammonium chloride, reference compound] | mildly compatible | 20.0 | 1
Cetyl trimethyl benzyl ammonium chloride [reference compound] | Very Incompatible | 0.5 | 
Dimer benzyl quat [Example 5] | Very | 88.2 | 5
Dimer glyceryl quat [Example 3] | Fully | 100.0 | 4
Dimer tri-methyl quat [Example 7] | Compatible | 58.9 | 4
Hydrogenated dimer benzyl quat [Example 6] |  |  | 5
Hydrogenated dimer glyceryl quat [Example 4] | Fully | 100.0 | 4
Hydrogenated dimer tri-methyl [Example 8] | Compatible | 59.6 | 4
